Measurements from patent US9221773B2, “Benzamide derivatives” (The Translational Genomics Research Institute, priority 2009, dated 2015).

Legend:
Assay type in all cases: cell-based
[1] = tested on: SKOV3 cell line; experiment: CellTiter-Blue cell viability assay, single agent, SKOV3; conditions: Homo sapiens, SK-OV-3, SKOV3 ovarian cancer cells, 72 hours treatment
Description: (§1) Cell viability in the presence of varying concentrations of the above listed compounds at different time points was used to assess cytotoxicity and the effect of the compounds on cell proliferation. The SKOV3 cell line was originally isolated in 1973 from the ascitic fluid of a patient with an ovarian cancer. SKOV3 is a hypodiploid human cell line. SKOV3 cells are resistant to tumor necrosis factor and to several cytotoxic drugs including diphtheria toxin, cis-platinum and adriamycin. The A2780 cell line is a human ovarian adenocarcinoma cell line originally derived from a biopsy from an untreated patient. The A2780/CP cell line is a line derived from the A2780 cell line selected for resistance to cis-platinum.
(§2) Cell viability was measured by the CellTiter-Blue® cell viability assay Promega (Madison, Wis.). This procedure measures the conversion of the indicator dye (resazurin) to resorufin, an indicator of cell viability. Following treatment, growth media was removed and cells were incubated with 20 μl of CellTiter-Blue® Reagent and growth media for 1-4 hours at 37° C. Fluorescence values were measured at 535/590 nm using a Beckman-Coulter DTX-880 microplate reader.
(§3) Cells were grown to 70% confluency, trypsinized, counted, and seeded in 96 well flat-bottom plates at a final concentration of 2.5×10^3-5×10^3 cells/well (Day 0). Cells were allowed to incubate in growth media for 24 hours to allow for maximum adhesion. Treatment with the test agents or standard agents began on Day 1 and continued for 72 hours. At the 72 hour timepoint, treatment containing media was removed. Viable cell numbers are quantified by the CellTiter-Blue® cell viability assay as described above. Experiments were repeated at least twice with the same concentrations to determine growth inhibitory activity. Results from these studies were used to calculate an IC50 value (concentration of drug that inhibits cell growth by 50 percent of control) for each compound.
(§4) For single agent and combination studies, data from each experiment was collected and expressed as % Cell Expansion using the following calculation: % Cell Expansion=(ftest/fvehicle)×100
(§5) Where ftest is the fluorescence of the tested sample, and fvehicle is the fluorescence of the vehicle in which the drug is dissolved. Dose response graphs and IC50 values were generated using Prism 4 software (GraphPad) using the following equation: […]

[2] = tested on: A2780/CP cell line; experiment: CellTiter-Blue cell viability assay, single agent, A2780/CP; conditions: Homo sapiens, A2780C/P, A2780/CP cis-platinum resistant cells, 72 hours treatment
Description: as §1, §2, §3, §4, §5

[3] = tested on: A2780 cell line; experiment: CellTiter-Blue cell viability assay, single agent, A2780; conditions: Homo sapiens, A2780 ovarian adenocarcinoma cells, 72 hours treatment
Description: as §1, §2, §3, §4, §5

Structure (SMILES) | IC50 [1] [nM] | IC50 [2] [nM] | IC50 [3] [nM]
COC(C(=O)Nc1ncc(C(=O)NO)s1)c1ccccc1 (stereo not shown) [Compound 7, N-hydroxy-2-(2-methoxy-2-phenylacetamido)thiazole-5-carboxamide] | 70 | 20 | 40
CC(C)C(C(=O)Nc1ncc(C(=O)NO)s1)c1ccccc1 (stereo not shown) [Compound 1, N-hydroxy-2-(3-methyl-2-phenylbutanamido)thiazole-5-carboxamide] | 40 |  | 
CC(C)(Cc1ccccc1)C(=O)Nc1ncc(C(=O)NO)s1 [Compound 11, 2-(2,2-dimethyl-3-phenylpropanamido)-N-hydroxythiazole-5-carboxamide] | 7500 | 3800 | 3800
COCCC(C(=O)Nc1ccc(C(=O)NO)cc1)c1ccccc1 (stereo not shown) [Compound 27, N-hydroxy-4-(4-methoxy-2-phenylbutanamido)benzamide] | 900 | 70 | 16
CC(C)C(C(=O)Nc1ccc(C(=O)NO)cc1)c1ccc(Cl)cc1 (stereo not shown) [Compound 12, 4-(2-(4-chlorophenyl)-3-methylbutanamido)-N-hydroxybenzamide] | 40 | 3 | 30
COCCC(C(=O)Nc1ncc(C(=O)NO)s1)c1ccc(-c2ccccc2)cc1 (stereo not shown) [Compound 24, 2-(2-(biphenyl-4-yl)-4-methoxybutanamido)-N-hydroxythiazole-5-carboxamide] | 30 | 17 | 20
CCC(C(=O)Nc1ncc(C(=O)NO)s1)c1ccccc1OC (stereo not shown) [Compound 23, N-hydroxy-2-(2-(2-methoxyphenyl)butanamido)thiazole-5-carboxamide] | 2300 | 500 | 100
O=C(NO)c1cnc(NC(=O)C2(c3ccccc3)CC2)s1 [Compound 3, N-hydroxy-2-(1-phenylcyclopropanecarboxamido)thiazole-5-carboxamide] | 4100 | 7500 | 1200
O=C(Cc1ccccc1)Nc1ncc(C(=O)NO)s1 [Compound 5, N-hydroxy-2-(2-phenylacetamido)thiazole-5-carboxamide] | 2100 | 1600 | 300
COCCC(C(=O)Nc1ncc(C(=O)NO)s1)c1ccccc1 (stereo not shown) [Compound 14, N-hydroxy-2-(4-methoxy-2-phenylbutanamido)thiazole-5-carboxamide] | 80 | 8.7 | 2.4
O=C(CCc1ccccc1)Nc1ncc(C(=O)NO)s1 [Compound 6, N-hydroxy-2-(3-phenylpropanamido)thiazole-5-carboxamide] | 500 | 3200 | 300
CCC(C(=O)Nc1ncc(C(=O)NO)s1)c1ccccc1 (stereo not shown) [Compound 2, N-hydroxy-2-(2-phenylbutanamido)thiazole-5-carboxamide] | 46 | 4 | 0.5
CCC(C(=O)Nc1ccc(C(=O)NO)cc1)c1ccc(Br)cc1 (stereo not shown) [Compound 25, 4-(2-(4-bromophenyl)butanamido)-N-hydroxybenzamide] | 100 | 20 | 1.1
CCC(C(=O)Nc1ncc(C(=O)NO)s1)c1ccc(-c2cncnc2)cc1 (stereo not shown) [Compound 18, N-hydroxy-2-(2-(4-(pyrimidin-5-yl)phenyl)butanamido)thiazole-5-carboxamide] | 100 | 140 | 440
CC(C)(C(=O)Nc1ncc(C(=O)NO)s1)c1ccccc1 [Compound 4, N-hydroxy-2-(2-methyl-2-phenylpropanamido)thiazole-5-carboxamide] | 1300 | 7500 | 900

Now from value to molecule:

IC50 [1] [nM] | IC50 [2] [nM] | IC50 [3] [nM] | Structure (SMILES)
30 | 4.8 | 30 | CC(C(=O)Nc1ncc(C(=O)NO)s1)c1ccccc1 (stereo not shown) [Compound 9, N-hydroxy-2-(2-phenylpropanamido)thiazole-5-carboxamide]
8.9 | 3 | < 0.1 | CCC(C(=O)Nc1ncc(C(=O)NO)s1)c1ccc(F)cc1 (stereo not shown) [Compound 19, 2-(2-(4-fluorophenyl)butanamido)-N-hydroxythiazole-5-carboxamide]
30 | 300 | 600 | CCC(C(=O)Nc1ncc(C(=O)NO)s1)c1cccc(OC)c1 (stereo not shown) [Compound 22, N-hydroxy-2-(2-(3-methoxyphenyl)butanamido)thiazole-5-carboxamide]
1.1 | 1.7 | 0.3 | CCC(C(=O)Nc1ccc(C(=O)NO)cc1)c1ccc(-c2ccccc2)cc1 (stereo not shown) [Compound 26, 4-(2-(biphenyl-4-yl)butanamido)-N-hydroxybenzamide]
20 | 40 | 60 | CC(C)C(C(=O)Nc1ncc(C(=O)NO)s1)c1ccc(O)cc1 (stereo not shown) [Compound 21, N-hydroxy-2-(2-(4-hydroxyphenyl)-3-methylbutanamido)thiazole-5-carboxamide]
2.5 | 0.08 | 0.5 | CCC(C(=O)Nc1ncc(C(=O)NO)s1)c1ccc(Br)cc1 (stereo not shown) [Compound 13, 2-(2-(4-bromophenyl)butanamido)-N-hydroxythiazole-5-carboxamide]
20 | 0.3 | 0.04 | CCC(C(=O)Nc1ccc(C(=O)NO)cc1)c1ccc(OC)cc1 (stereo not shown) [Compound 15, N-hydroxy-4-(2-(4-methoxyphenyl)butanamido)benzamide]
< 0.1 | < 0.1 | < 0.1 | CCC(C(=O)Nc1ncc(C(=O)NO)s1)c1ccc(OC)cc1 (stereo not shown) [Compound 8, N-hydroxy-2-(2-(4-methoxyphenyl)butanamido)thiazole-5-carboxamide]
4.3 | 100 | 2.4 | CCC(C(=O)Nc1ncc(C(=O)NO)s1)c1cccc(F)c1 (stereo not shown) [Compound 20, 2-(2-(3-fluorophenyl)butanamido)-N-hydroxythiazole-5-carboxamide]
4 | 6.2 | 1.7 | CC(C)C(C(=O)Nc1ncc(C(=O)NO)s1)c1ccc(Cl)cc1 (stereo not shown) [Compound 10, 2-(2-(4-chlorophenyl)-3-methylbutanamido)-N-hydroxythiazole-5-carboxamide]
0.2 | 0.9 | < 0.1 | CCC(C(=O)Nc1ncc(C(=O)NO)s1)c1ccc(-c2ccccc2)cc1 (stereo not shown) [Compound 17, 2-(2-(biphenyl-4-yl)butanamido)-N-hydroxythiazole-5-carboxamide]
